Source: PubChem BioAssay (NCI)
Where “and” joins values, the source holds several entries; their conditions need not be identical. Equal values may be shown once.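 96-well plates; 48 h exposure; 5 concentrations. Endpoints by linear interpolation between flanking doses. Not reached: highest tested concentration assigned. GI50 is the concentration that inhibits growth by half. TGI is the concentration that stops growth completely.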

Experiments:
Test in all cases: NCI anticancer screen, dose series, 48 h
[1] = system: UACC-62 melanoma
[2] = system: SN12C renal
[3] = system: EKVX NSCLC
[4] = system: CCRF-CEM leukemia
[5] = system: MDA-MB-435
[6] = system: SF-268 CNS
[7] = system: MCF7 breast
[8] = system: COLO 205 colon
[9] = system: SK-MEL-28 melanoma
[10] = system: OVCAR-5 ovarian

Compound	GI50 [1] [µM]	TGI [1] [µM]	GI50 [2] [µM]	TGI [2] [µM]	GI50 [3] [µM]	TGI [3] [µM]	GI50 [4] [µM]	TGI [4] [µM]	GI50 [5] [µM]	TGI [5] [µM]	GI50 [6] [µM]	TGI [6] [µM]	GI50 [7] [µM]	TGI [7] [µM]	GI50 [8] [µM]	TGI [8] [µM]	GI50 [9] [µM]	TGI [9] [µM]	GI50 [10] [µM]	TGI [10]
c1ccc(-c2nc(-c3ccccn3)nc(-c3ccccn3)n2)nc1	28	> 100	56.6	> 100	17	> 100	14.4	> 100	41.3	> 100	32.4	> 100	29.6	> 100	45.7	> 100	71	> 100	> 100	> 100 µM
COc1ccc(C2=Nn3c(nnc3-c3cc(Cl)cc(Cl)c3Cl)SC2)cc1	0.436	> 100	1.54	> 100	0.622	> 46.1	0.519	> 100	0.163	0.588	1.3	> 100	0.326	> 100	0.792	7.15		> 100	1.42	> 100 µM
CC1=C([Se]CC(OC(=O)CC[Se]c2ccccc2)C(=O)NC(C)(C)C)C(=O)c2ccccc2C1=O (stereo not drawn)	1.48	2.83	1.67	3.13	1.73	3.8	0.628	4.1	2.21	4.7	1.76	3.29	1.69	3.73	1.6	3.13	2.08	3.55	1.75	3.18 µM
N=C1C(O)C2(I)c3ccccc3N3C(=N)C(O)C4c5ccccc5N1C4C32 (stereo not drawn)		> 100		> 100		> 100		18.6		37.9		> 100		> 100		> 100		> 100		> 100 µM
Nc1ncn([C@@H]2S[C@H](CO)[C@@H](O)[C@@H]2F)c(=O)n1	5.01	> 100	0.364	> 100	8.97	> 100	0.0399	> 100	0.692	> 100	4.28	> 100	0.279	> 100	3.57	> 100	> 100	> 100	2.64	> 100 µM
c1ccc(NN(Cc2cnccn2)c2ccccc2)cc1		> 100		> 100		> 100		51.2		> 100		> 100		> 100		> 100		> 100		> 100 µM
CN(C)CCNC(=O)Cn1ccc(=O)c2cc([N+](=O)[O-])ccc21		> 100		> 100		> 100		> 100		> 100		> 100		> 100		> 100		> 100		> 100 µM
O=[N+]([O-])c1ccccc1N=Nc1c(O)[nH]c2cccc(C(F)(F)F)c12		> 100		73.8		> 100		> 100		40.7		> 100		> 100		> 100		> 100		> 100 µM
O=c1oc2ccccc2c2c1Sc1ccccc1N2		> 100		> 100		> 100		> 100		> 100		> 100		> 100		> 100		> 100		> 100 µM
Cc1ccc2cnc(N)c(C#Cc3cc(C(=O)Nc4ccc(CN5CCN(C)CC5)c(C(F)(F)F)c4)cnc3C)c2c1	0.234	1.08	0.317	1.06	0.679	1.53	0.917	2.85	0.262	1.01	0.559	1.27	0.498	1.49	0.296	1.16	0.609	1.36	0.688	1.49 µM
CCSCCCSCCSCC		> 100		> 100		> 100		> 100		> 100		> 100		> 100		> 100		> 100		> 100 µM
O=C(Nc1cccc(Cl)c1)Nn1cnnc1	> 50	> 100	> 50	> 100		> 100	> 50	> 100	> 50	> 100	> 50	> 100	> 50	> 100	> 50	> 100	> 50	> 100	> 50	> 50 µM and 22.5 µM
CC1=C2C(=C[C@@](C)(CO)[C@@H]2OC(=O)N(C)CCN(C)C(=O)OC(C)(C)C)C(=O)[C@](C)(O)C12CC2	8.33	17.8	11.1	> 50	10.7	29.1	18.8	> 50	9.74	23.1	1.78	18.7	3.35	> 50	5.27	14.3	9.83	26.5	2.67	> 50 µM
CCCN1C(=O)NC(=O)C(CC)(N2C(=O)c3c(F)c(F)c(F)c(F)c3C2=O)C1=O (stereo not drawn)	1.99	5.94	2.16	6.14	2.33	6.62	1.1	3.24	2.25	6.52	2	5.07	0.987	4.06	1.74	3.29	1.71	3.22	2.04	4.11 µM
Nc1nc2ccc(-c3nc4ccc5[nH]ncc5c4c4c3CCC4)cc2s1	0.149	0.63	0.383	8.79	0.916	8.05	0.225	50	0.0673	0.259	0.478	20.2	0.165	7.36	0.306	7.14	0.638	7.89	2.64	11.9 µM
O=C1OCC2=C1C(c1cccc(F)c1)c1cc3c(cc1N2CCO)OCO3 (stereo not drawn)	2.25	> 50	3.05	> 50	3.03	> 50	2.37	> 50	0.187	1.57	3.2	> 50	1.44	> 50	1.48	15.1	20.3	> 50	4.33	> 50 µM
O=S(=O)(/N=c1\scc(-c2ccccc2)n1-c1ccccc1)c1ccc(N2N=C3c4ccccc4CC3C2c2ccc(Cl)cc2)cc1 (stereo not drawn)	32.7	> 100	50.8	> 100	61.1	> 100	18.6	59.3	24.2	> 100	> 100	> 100	> 100	> 100	23.6	54.9	67.7	> 100	38.1	> 100 µM
CCOC(=O)Oc1c(OC)cc(C(=O)c2ccc(OC)c(O)c2OC)cc1OC	3.82	> 100	2.79	> 100	2.54	> 100	0.41	> 100	0.288	1.01	10.7	> 100	0.516	> 100	12.5	63.5	2.78	> 100	5.96	> 100 µM
